Experimental data reported in patent publication US20260256136A1, “STABILIZATION OF ALDEHYDES AND/OR AN ALCOHOLS” (priority 2022, published 2026).
Like-named read-outs stand apart in the source and are kept apart here.

Tests used:
[1] = Storage test of aldehyde mixture containing 4-hydroxy-TEMPO with additive (Example 4); format: physicochemical; conditions: for Heptane / Z11-16:OH / 16:Acid / OH tempo / Z9-16:Ald / 15-1:Ald / 16:Ald / Z11-16:Ald: after 55° C. 14 days without cap; for Heptane: before test 0.04, without additive 0.04; for Z11-16:OH: before test 0.27, without additive 0.06; for 16:Acid: before test 1.05, without additive 6.14; for OH tempo: before test 1.19, without additive 1.11; for Z9-16:Ald: before test 5.09, without additive 3.71; for 15-1:Ald: before test 7.27, without additive 5.83; for 16:Ald: before test 8.41, without additive 6.64; for Z11-16:Ald: before test 75.31, without additive 57.21, in % (unit assumed)
Method: To a mixture of aldehydes containing; 4-hydroxy-TEMPO (4-hydroxy-2,2,6,6-tetramethylpiperidin-1-oxyl), (Z)-10-pentenenal, (Z)-9-hexadecenal, (Z)-11-hexadecenal, hexadecanal, (Z)-11-hexadecen-1-ol and (Z)-11-hexadecenoic acid in the composition listed in table 4 below was added up to 1% of an additive in table below. The mixture was thoroughly mixed and heated without cap in an oven at 55° C. for 14 days.

[2] = Storage test of aldehyde mixture containing 4-hydroxy-TEMPO and 10 ppm Copper with additive (Example 3); conditions: 10 ppm Copper; for Z11-16:OH / Z10-15:Ald / 16:Acid / Z9-16:Ald / 16:Ald / Z11-16:Ald: after 55 C 14 days without cap; for Z11-16:OH: before test 2.16, blank 1.44; for Z10-15:Ald: before test 2.61, blank 2.72; for 16:Acid: before test 3.01, blank 7.94; for Z9-16:Ald: before test 5.33, blank 3.91; for 16:Ald: before test 8.16, blank 6.48; for Z11-16:Ald: before test 74.98, blank 58.18; for suppressing acid formation and degradation of the aldehydes: 55 C 14 days
Method: To a mixture of aldehydes containing; 4-hydroxy-TEMPO (4-hydroxy-2,2,6,6-tetramethylpiperidin-1-oxyl), (Z)-10-pentenenal, (Z)-9-hexadecenal, (Z)-11-hexadecenal, hexadecanal, (Z)-11-hexadecen-1-ol (Z)-11-hexadecenoic acid and 10 ppm Copper in the composition listed in table 3 below was added up to 1% of an additive in table below. The mixture was thoroughly mixed and heated without cap in an oven at 55 C for 14 days.

[3] = Accelerated storage test of aldehyde mixture with additive, 40 ppm Cu (Example 1); format: physicochemical
Method: To a mixture of aldehydes containing; (Z)-9-hexadecenal, (Z)-11-hexadecenal, hexadecanal, (Z)-11-hexadecen-1-ol, (Z)-11-hexadecenoic acid and 40 ppm Cu was added an additive as indicated in table 1 below. The mixture was thoroughly mixed and heated without cap in an oven at 55° C. for 14 days as an accelerated storage test.

[4] = Accelerated storage test of aldehyde mixture with additive, 10 ppm Cu (Example 2)
Method: The term “accelerated storage test” as used herein refers to a well known protocol for investigating the stability of a particular composition. The protocol is described in for example the memorandum dated 16 Nov. 2012 from The United States Environmental Protection Agency Washington, D.C. 20460 with the subject title “Accelerated Storage Stability and Corrosion Characteristics Study Protocol”. The protocol evaluates product stability at 54° C.±2° C. for 14 days.

Molecule | Heptane [1] | Z11-16:OH [1] | 16:Acid [1] | OH tempo [1] | Z9-16:Ald [1] | 15-1:Ald [1] | 16:Ald [1] | Z11-16:Ald [1] | Z11-16:OH [2] | Z10-15:Ald [2] | 16:Acid [2] | Z9-16:Ald [2] | 16:Ald [2] | Z11-16:Ald [2] | suppressing acid formation and/or degradation of the aldehydes ([1]; 55° C. 14 days) | suppressing acid formation and degradation of the aldehydes [2] | further results
Cc1nnc(S)s1 [5-Methyl-1,3,4-thiadiazole-2-thiol] | 0.04 | 0.29 | 1.38 | 1.14 | 4.38 | 6.71 | 8.04 | 71.38 | 2.12 | 2.74 | 3.02 | 4.69 | 7.81 | 71.97 |  |  | suppressing acid formation and/or degradation of the aldehydes [1]: particularly efficient at suppressing acid formation and/or degradation of the aldehydes
CC1(C)CC(O)CC(C)(C)N1[O] [Additive 4-OH-TEMPO, 4-hydroxy-2,2,6,6-tetramethylpiperidin-1-oxyl] | 0.04 | 0.19 | 3.00 | 1.53 | 4.52 | 6.54 | 7.60 | 67.41 | 1.88 | 2.69 | 4.18 | 4.72 | 7.51 | 68.82 |  |  | 
[Na+].[O-][n+]1ccccc1[S-] [Sodium pyrithione] | 0.04 | 0.24 | 1.58 | 1.05 | 5.08 | 6.71 | 8.29 | 74.65 | 2.14 | 2.87 | 3.39 | 5.18 | 8.07 | 74.71 | particularly efficient at suppressing acid formation and/or degradation of the aldehydes | particularly efficient at suppressing acid formation and degradation of the aldehydes | suppressing degradation ([3]; 55° C. 14 days): particularly efficient at suppressing degradation; Z9-16:Ald ([3]; after 55° C. 14 days without cap, before test 4.3, blank 3.066023): 3.083; C16:Acid ([3]; after 55° C. 14 days without cap, before test 6.7, blank 18.84135): 8.924; 16:Ald ([3]; after 55° C. 14 days without cap, before test 7.5, blank 6.659339): 6.675; Z11-16Ald ([3]; after 55° C. 14 days without cap, before test 69.4, blank 54.83784, in % (unit assumed)): 57.02; suppressing degradation ([4]; 55° C. 14 days): highly efficient at suppressing degradation; C16:Acid ([4]; after 55° C. 14 days without cap, before test 1.05, blank 17.72): 3.34; Z9-16:Ald ([4]; after 55° C. 14 days without cap, before test 5.09, blank 3.05): 4.20; 16:Ald ([4]; after 55° C. 14 days without cap, before test 8.41, blank 6.60): 8.73; Z11-16Ald ([4]; after 55° C. 14 days without cap, before test 75.31, blank 54.31): 76.47
Zinc Pyrithione | 0.04 | 0.13 | 2.29 | 1.17 | 4.57 | 6.78 | 7.72 | 65.87 | 1.53 | 3.04 | 5.28 | 4.44 | 7.01 | 64.80 | particularly efficient at suppressing acid formation and/or degradation of the aldehydes | particularly efficient at suppressing acid formation and degradation of the aldehydes | 
